Measurements published in patent publication US7550599B2, “Water compatible sterically hindered alkoxyamines and hydroxy substituted alkoxyamines” (Ciba Specialty Chemicals Corporation, priority 2003, dated 2009).

What was measured:
Solubility in water = assay type: physicochemical; conditions: stirred 30 minutes
Protocol: (§1) The solubility of the instant compounds is evaluated in polar solvent systems. The instant compounds are added to water, stirred for 30 minutes, and sampled for analysis. Samples containing bis(1-octyloxy-2,2,6,6-tetramethylpiperidin-4-yl)sebacate and 4-hydroxy-1-(2-hydroxy-2-methylpropoxy)-2,2,6,6-tetramethylpiperidine are filtered to remove any undissolved residue and all samples are analyzed by high pressure liquid chromatography or gas chromatography.

[1] = Solubility in 50% butyl cellusolve / 50% water; assay type: physicochemical; conditions: 50% butyl cellusolve / 50% water by weight; stirred 30 minutes
Protocol: as §1, with “systems. A solution of 50% butyl cellusolve by weight and 50% water by weight is prepared.” for “systems.”, “this solution” for “water,”

[2] = Solubility in 50% butyl carbitol / 50% water; assay type: physicochemical; conditions: 50% butyl carbitol / 50% water by weight; stirred 30 minutes
Protocol: as §1, with “systems. A solution of 50% butyl carbitol by weight and 50% water by weight is prepared.” for “systems.”, “this solution,” for “water,”

[3] = Solubility in 25% butyl cellusolve / 75% water; assay type: physicochemical; conditions: 25% butyl cellusolve / 75% water by weight; stirred 30 minutes
Protocol: as §1, with “systems. A solution of 25% butyl cellusolve by weight and 75% water by weight is prepared.” for “systems.”, “this solution,” for “water,”, “bis[…]” for “bis(1-octyloxy-2,2,6,6-tetramethylpiperidin-4-yl)sebacate”

[4] = Compatibility (clarity) in water borne urethane/acrylic copolymer coating, Example 101; assay type: physicochemical; conditions: 2% by weight stabilizer; haziness = incompatibility
Protocol: Formulation Reference: NeoResins, Inc., Formulation WB-2010, Technical Brochure, August, 2000.
(§2) The following components are mixed together under good agitation:
This solution is added to a 4 ounce clear glass jar containing 72.85 parts of NeoPac R-9699 under vigorous agitation and agitated for 10 minutes. Optionally, a defoamer, like Dehydran 1620 (Henkel), and a flash rusting agent, like Heiscore XAB (Cas Chem), are added. The lid is placed securely on the jar. The solidified coatings are visually observed for clarity after solidification. The development of opacity or haziness is indicative of an incompatibility between the hindered amine stabilizer and the formulated coating.

[5] = Ink jet media light fastness, magenta, Example 32; conditions: 100% print density, office fluorescent lighting
Protocol: (§3) A resin-coated paper impregnated with inorganic adsorbent particles (Konica QP Photoglossy ink jet paper, Konica Corp.) is purchased. On the ink-receiving layer, a 0.8 wt % methanol solution of the instant compounds is applied in an amount to achieve 650-700 mg/m^2, unless otherwise stated. The paper is allowed to dry under ambient temperature and pressure for 24 hours. Separately, test patterns (magenta) are printed on the treated sheets using a Hewlett Packard DeskJet 970 Cxi printer at 100% print density. The obtained prints are left to dry at ambient temperature and pressure for 24 hours. Color densities and CIEL*a*b coordinates before and after exposure are measured using X-Rite 938 Spectrodensitometer. Exposures are carried out using normal office fluorescent lighting.

[6] = Ink jet media light fastness, cyan, Example 31; conditions: 100% print density, office fluorescent lighting
Protocol: as §3, with “(cyan)” for “(magenta)”

[7] = Ink jet media light fastness, cyan, Example 34; conditions: 50% print density, office fluorescent lighting
Protocol: as §3, with “(cyan)” for “(magenta)”, “50%” for “100%”

[8] = Ink jet media light fastness, yellow, Example 36; conditions: 50% print density, office fluorescent lighting, 650-700 mg/m2
Protocol: as §3, with “stated otherwise.” for “otherwise stated.”, “(yellow)” for “(magenta)”, “50%” for “100%”

[9] = Ink jet media light fastness, yellow, Example 33; conditions: 50% print density as printed, office fluorescent lighting, 650-700 mg/m2
Protocol: as §3, with “stated otherwise.” for “otherwise stated.”, “(yellow)” for “(magenta)”, “50%” for “100%”

[10] = Compatibility (clarity) of polyurethane coating in Petri dish, Example 115; assay type: physicochemical; conditions: coating of Example 113; oven 75 C 120 minutes; 2% by weight stabilizer
Protocol: (§4) The hindered amine test stabilizers are incorporated into a coating system as described in Example 113. A 9.5-10 gram sample of each of the liquid coatings is added to a 100 mm×15 mm Petri dish and is placed in an oven at 75 C for 120 minutes. The samples are taken out of the oven, allowed to cool, and are visually observed for clarity over time. The development of opacity or haziness is indicative of an incompatibility between the hindered amine stabilizer and the formulated coating.

[11] = Compatibility (clarity) of acrylic copolymer coating in Petri dish, Example 114; assay type: physicochemical; conditions: coating of Example 112; oven 65 C thirty minutes; 2% by weight stabilizer
Protocol: as §4, with “112.” for “113.”, “65” for “75”, “thirty” for “120”

[12] = Compatibility (clarity) in alkali-soluble water-borne acrylic copolymer coating, liquid in jar, Example 112; assay type: physicochemical; conditions: 2% by weight stabilizer; haziness = incompatibility
Protocol: Formulation Reference: NeoResins, Inc., Formulation WB-2065, Technical Brochure.
as §2
(§5) This solution is added to a 4 ounce clear glass jar containing 54.14 parts of NeoCryl BT-520 and 0.43 parts of Instant Stabilizer under vigorous agitation and is agitated for 10 minutes. The lid is placed securely on the jar. The liquid coating samples are visually observed for clarity over time. The development of opacity or haziness is indicative of an incompatibility between the hindered amine stabilizer and the formulated coating.

[13] = Compatibility (clarity) in two component water-borne polyurethane coating, jar, Example 113; assay type: physicochemical; conditions: 2% by weight stabilizer, with UVA; haziness = incompatibility
Protocol: Formulation Reference: Bayer Corp., 2K Waterborne Clear, Notebook #820894-A, Technical Brochure.
as §2
as §5, with “15.56” for “54.14”, “Bayhydur XP-7165” for “NeoCryl BT-520”, “3.91” for “0.43”, “Exxate 700” for “Instant Stabilizer”, “solidified” for “liquid”

CC(C)(O)CON1C(C)(C)CC(O)CC1(C)C [HALS B, 4-hydroxy-1-(2-hydroxy-2-methylpropoxy)-2,2,6,6-tetramethylpiperidine, reference compound]
Solubility (% by weight) (Solubility in water): 1.4 % by weight
Solubility (% by weight) [1]: 15.5 % by weight
Solubility (% by weight) [2]: 13.4 % by weight
Solubility (% by weight) [3]: 13.6 % by weight

CCCCN(c1nc(Nc2ccc(Cl)c(C(=O)O)c2)nc(N(CCCC)C2CC(C)(C)N(OC3CCCCC3)C(C)(C)C2)n1)C1CC(C)(C)N(OC2CCCCC2)C(C)(C)C1 [G]
Solidified coating in jar, clarity, 0 days [4]: clear
Solidified coating in jar, clarity, 1 days [4]: clear
Solidified coating in jar, clarity, 19 days [4]: clear

CCCCN(c1nc(Nc2ccc(S(=O)(=O)O)cc2)nc(N(CCCC)C2CC(C)(C)N(OC3CCCCC3)C(C)(C)C2)n1)C1CC(C)(C)N(OC2CCCCC2)C(C)(C)C1.Cl [H]
Solidified coating in jar, clarity, 0 days [4]: clear
Solidified coating in jar, clarity, 1 days [4]: clear
Solidified coating in jar, clarity, 19 days [4]: clear

CCCCCCCCON1C(C)(C)CC(OC(=O)CCCCCCCCC(=O)OC2CC(C)(C)N(OCCCCCCCC)C(C)(C)C2)CC1(C)C [HALS A, bis(1-octyloxy-2,2,6,6-tetramethylpiperidin-4-yl) sebacate, reference compound]
Solubility (% by weight) (Solubility in water): <0.1 % by weight
Solubility (% by weight) [1]: 0.7 % by weight
Solubility (% by weight) [2]: 0.2 % by weight
Solubility (% by weight) [3]: <0.1 % by weight

CCCCN(c1nc(NCCN2CCNCC2)nc(N(CCCC)C2CC(C)(C)N(OC3CCCCC3)C(C)(C)C2)n1)C1CC(C)(C)N(OC2CCCCC2)C(C)(C)C1.Cl [J]
Solidified coating in jar, clarity, 0 days [4]: clear
Solidified coating in jar, clarity, 1 days [4]: clear
Solidified coating in jar, clarity, 19 days [4]: clear

CON1C(C)(C)CC(NCCOCCOCCNC2CC(C)(C)N(OC)C(C)(C)C2)CC1(C)C [L]
Solidified coating in jar, clarity, 0 days [4]: clear
Solidified coating in jar, clarity, 1 days [4]: clear
Solidified coating in jar, clarity, 19 days [4]: clear

CC(C)(O)CON1C(C)(C)CC(NCCO)CC1(C)C [Example 1]
DE for magenta after 4 weeks ([5]; 650-700 mg/m2): 20.23
DE for cyan after 4 weeks ([6]; 650-700 mg/m2): 4.21
DE for cyan after 4 weeks ([7]; 650-700 mg/m2): 5.29

CC(C)(O)CON1C(C)(C)CC(NCC(=O)[O-])CC1(C)C.[K+] [Example 10]
Solubility (% by weight) (Solubility in water): ≧8 % by weight
Solubility (% by weight) [1]: ≧20 % by weight
Solubility (% by weight) [2]: ≧20 % by weight
Solubility (% by weight) [3]: ≧18 % by weight

CC(=O)O.CCCCN(c1nc(NCCNCCNCCN)nc(N(CCCC)C2CC(C)(C)N(OC3CCCCC3)C(C)(C)C2)n1)C1CC(C)(C)N(OC2CCCCC2)C(C)(C)C1 [I]
Solidified coating in jar, clarity, 0 days [4]: clear
Solidified coating in jar, clarity, 1 days [4]: clear
Solidified coating in jar, clarity, 19 days [4]: clear

CC(C)(O)CON1C(C)(C)CC(=NO)CC1(C)C [Example 2]
DE for yellow after 4 weeks [8]: 1.36
DE for cyan after 4 weeks ([6]; 650-700 mg/m2): 4.69
DE for yellow after 4 weeks [9]: 3.87
DE for cyan after 4 weeks ([7]; 650-700 mg/m2): 5.53

CCCCCCCCON1C(C)(C)CC(OC(=O)CCCCCCCCC(=O)OC2CC(C)(C)N(OCCCCCCCC)C(C)(C)C2)CC1(C)C [B]
Solidified coating in Petri Dish, clarity, 0 [10]: hazy
Solidified coating in Petri Dish, clarity, 1 Month [10]: hazy
Solidified coating in Petri Dish, clarity, Day 1 [10]: hazy
Solidified coating in Petri Dish, clarity, 0 [11]: hazy
Solidified coating in Petri Dish, clarity, 1 Month [11]: hazy
Solidified coating in Petri Dish, clarity, Day 1 [11]: hazy
Liquid coating in jar, clarity, 0 [12]: hazy
Liquid coating in jar, clarity, 1 Month [12]: hazy
Liquid coating in jar, clarity, Day 1 [12]: hazy
Solidified coating in jar, clarity, 0 days [4]: hazy
Solidified coating in jar, clarity, 1 days [4]: hazy
Solidified coating in jar, clarity, 19 days [4]: hazy
Solidified coating in jar, clarity, 0 [13]: hazy
Solidified coating in jar, clarity, 1 Month [13]: hazy
Solidified coating in jar, clarity, Day 1 [13]: hazy

CC(C)(O)CON1C(C)(C)CC(NCCO)CC1(C)C.Cl [Example 22]
DE for magenta after 4 weeks ([5]; 650-700 mg/m2): 25.20
DE for magenta after 4 weeks ([5]; (2x) 1300 to 1400 mg/m2): 21.96
DE for yellow after 4 weeks [8]: 3.15
DE for cyan after 4 weeks ([6]; 650-700 mg/m2): 5.26
DE for cyan after 4 weeks ([6]; (2x) 1300 to 1400 mg/m2): 4.62
DE for yellow after 4 weeks [9]: 5.53
DE for cyan after 4 weeks ([7]; 650-700 mg/m2): 5.98
DE for cyan after 4 weeks ([7]; (2x) 1300 to 1400 mg/m2): 5.11
